Reference: patent US4368267A, “Epoxidation of lower α-olefins” (priority 1980, dated 1983)
Values joined by “and” are separate entries in the source; they are usually repeats but may differ in a detail not shown here. Equal entries are not always repeated.

How the values were obtained:
[1] = tested on: P(40), P(80), S(80) cell fractions of Methylosinus sp. (CRL-15, NRRL B-11,202); assay: Oxidation of n-alkanes and n-alkenes by cell fractions; assay type: biochemical; conditions: for Uninhibited rate of oxidation: no inhibitor; for NADH Oxidized / O2 Consumed / Product Formed: substrate 5.0 μmoles; for Rate of Product Formation (substrate to 1,2-epoxide or alcohol) / 100% activity, product formed (storage study) / 100% activity, product formed (pH study) / 100% activity, product formed (temperature study): P(40) particulate fraction; for 100% activity, product formed (storage study): before storage at 0°-4° C.; for 100% activity, product formed (pH study): optimum pH 7.0; for 100% activity, product formed (temperature study): optimum temperature 35° C.
Method: Cells were washed twice with 25 mM potassium phosphate buffer, pH 7.0 containing 5 mM MgCl2. Cells were suspended in the same buffer. The cell suspensions at 4° C. were disintegrated by a single passage through a French Pressure cell (15,000 lb./in.^2) and centrifuged at 5000×g. for 15 min. to remove unbroken bacteria. The supernatant solution (crude extract) was then centrifuged at 40,000×g. for 30 min., yielding particulate P(40) and soluble S(40) fractions. The S(40) fraction was subsequently centrifuged at 80,000×g. for 60 min., yielding particulate P(80) and soluble S(80) fractions. The particulate fractions [P(40) and P(80)] were suspended in 25 mM potassium phosphate buffer, pH 7.0, containing 5 mM MgCl2 and homogenized at 4° C.
[…] The reaction mixtures contained in 1.0 ml: 150 mM potassium phosphate buffer, pH 7.0 containing 5 mM MgCl2, 0.6 ml; […] NADH, and cellular fraction.
Reaction mixtures were contained in 10 ml vials at 4° C. Vials were sealed with rubber caps. The gaseous phase in the vials was removed using vacuum and then was replaced with a gas mixture of methane or propylene and oxygen at a 1:1, v/v ratio. Oxidation of other gaseous n-alkanes and n-alkenes was examined as described above. For liquid substrates, 10 μl of substrate was used directly.
The products of epoxidation of n-alkenes and hydroxylation of n-alkanes were assayed by flame ionization gas chromatography using a stainless steel column (12'×1/8") packed with 10% Carbowax 20 M on 80/100 Chromosorb W and Porapak Q column. The column temperature was maintained isothermally at 120° C. The carrier gas flow rate was 30 ml/min. of helium. The various products were identified by retention time comparisons and co-chromatography with authentic standards.
Specific activities were expressed as μ moles of products formed per hour per mg. protein. Concentrations of protein in various fractions were determined by the method of Lowry et al., J. Biol. Chem. 193: 265-275 (1951).

[2] = tested on: Methylocystis parvus OBBP (NRRL B-11,198); assay: Methane hydroxylation and alkene epoxidation by washed cell suspensions; assay type: cell-based; conditions: for Ability to hydroxylate methane or epoxidize C2 -C4 alkenes: methanol-grown washed cells
Method: (§1) The pH of the nutrient medium was adjusted to 7.0 by the addition of acid or base and 50 ml aliquots of the nutrient medium was charged into a plurality of 300 ml shake flasks. […] The isolates had been maintained on agar plates under an atmosphere of methane and air having a 1:1 v/v gas ratio which had been transferred every two weeks. […] The inoculated flasks were sealed air tight and were incubated on a rotary shaker of orbital radius 2.5 cm at 250 rpm and at 30° C. for two days until the turbidity in the medium had developed.
(§2) The cells were harvested by centrifugation at 10,000 ×g at 4° C. for 30 minutes. The cell pellet was washed twice with a 0.15 M phosphate buffer at a pH of 7.0 (containing 0.002 M MgCl2). The washed cells were then suspended in a 0.15 M phosphate buffer at pH 7.0.
(§3) A 0.5 ml aliquot of each washed cell suspension (2 mg cells) was put into 10 ml vials at 4° C. which were sealed with a rubber cap. The gaseous phase of the vials was removed with vacuum and then was replaced with a gas mixture of alkene and oxygen at a 1:1 v/v ratio. It was then incubated at 30° C. on a rotary shaker at 300 rpm. Samples of product (3 μl) were withdrawn periodically with a microsyringe and the products were analyzed by gas chromatography (ionization flame detector column).

[3] = tested on: Methylomonas methanica S1 (NRRL B-11,199); assay: as above; assay type: cell-based; conditions: for Ability to hydroxylate methane or epoxidize C2 -C4 alkenes: methanol-grown washed cells
Method: as §1, §2, §3

[4] = tested on: Methylosinus sporium 5 (NRRL B-11,197); assay: as above; assay type: cell-based; conditions: methane-grown washed cells, 30° C.
Method: (§4) The pH of the nutrient medium was adjusted to 7.0 by the addition of acid or base and 50 ml aliquots of the nutrient medium was charged into a plurality of 300 ml shake flasks. […] The isolates had been maintained on agar plates under an atmosphere of methane and air having a 1:1 v/v gas ratio which had been transferred every two weeks. The gaseous phase of the inoculated flasks was then replaced with a gas mixture comprised of methane and air having a ratio of 1:1 on a v/v basis. The inoculated flasks were sealed air tight and were incubated on a rotary shaker of orbital radius 2.5 cm at 250 rpm and at 30° C. for two days until the turbidity in the medium had developed.
as §2
as §3, with “The gaseous phase of the vials was removed with vacuum and then was replaced with a gas mixture of alkene and oxygen at a 1:1 v/v ratio.” left out

[5] = tested on: Methylomonas albus BG8 (NRRL B-11,200); assay: as above; assay type: cell-based; conditions: methane-grown washed cells, 30° C.
Method: as §4, §2, §3

[6] = tested on: Methylobacterium organophilum XX (ATCC 27,886); assay: Methane hydroxylation and propylene epoxidation by washed cell suspensions; assay type: cell-based; conditions: methane-grown washed cells, 30° C.
Method: The pH of the nutrient medium was adjusted to 7.0 by the addition of acid or base and 50 ml aliquots of the nutrient medium was charged into a plurality of 300 ml shake flasks. The shake flasks were inoculated with an inoculating loop of cells from an agar plate containing homogeneous colonies of the microorganisms on the plate (the purity of the isolates were confirmed by microscopic examination). The isolates had been maintained on agar plates under an atmosphere of methane and air having a 1:1 v/v gas ratio which had been transferred every two weeks. The gaseous phase of the inoculated flasks was then replaced with a gas mixture comprised of methane and air having a ratio of 1:1 on a v/v basis. The inoculated flasks were sealed air tight and were incubated on a rotary shaker of orbital radius 2.5 cm at 250 rpm and at 30° C. for two days until the turbidity in the medium had developed.
The cells were harvested by centrifugation at 10,000 ×g at 4° C. for 30 minutes. The cell pellet was washed twice with a 0.15 M phosphate buffer at a pH of 7.0 (containing 0.002 M MgCl2). […]
A 0.5 ml aliquot of each washed cell suspension (2 mg cells) was put into 10 ml vials at 4° C. which were sealed with a rubber cap. […] Samples of product (3 μl) were withdrawn periodically with a microsyringe and the products were analyzed by gas chromatography (ionization flame detector column).

[7] = tested on: Methylobacter capsulatus Y (NRRL B-11,201); assay: as above; assay type: cell-based; conditions: for Ability to hydroxylate methane or epoxidize C2 -C4 alkenes: methanol-grown washed cells
[8] = tested on: Methylococcus capsulatus (CRL M1, NRRL B-11,219); assay: Oxidation/epoxidation by washed cell suspensions; assay type: cell-based
[9] = methane-grown washed cells, 30° C.

C=CC [Propylene]
Propylene-Oxidizing Activity, P(40) ([1]; P(40) fraction, 30° C.): 3.8 μmoles of product formed per h
Uninhibited rate of oxidation ([1]; P(40) fraction): 4.1 μmoles per hr. per mg. of prot
NADH Oxidized ([1]; P(40) fraction): 5.0 µmol
O2 Consumed ([1]; P(40) fraction): 4.8 µmol
Product Formed ([1]; P(40) fraction): 4.5 µmol
Propylene Oxide Produced ([1]; P(40) fraction, substrate propylene alone): 4.3 μmoles/hr/mg. protein
Rate of Product Formation (substrate to 1,2-epoxide or alcohol) ([1]; 30° C.): 4.1 μmoles/hr/mg of protein
100% activity, product formed (storage study) [1]: 4.1 μmoles per hr. per mg. of prot
100% activity, product formed (pH study) [1]: 4.1 μmoles per hour, per mg protei
100% activity, product formed (temperature study) [1]: 4.2 μmoles per hour per mg of prot
Propylene-Oxidizing Activity, P(80) ([1]; P(80) fraction, 30° C.): 3.7 μmoles of product formed per h
Propylene-Oxidizing Activity, S(80) ([1]; S(80) fraction, 30° C.): 0 μmoles of product formed per h
Conversion rate, propylene to propylene oxide [2, 9]: 1.6 μmole/hr/mg protein
Ability to hydroxylate methane or epoxidize C2 -C4 alkenes [2]: did not possess the ability
Conversion rate, propylene to propylene oxide [3, 9]: 2.7 μmole/hr/mg protein
Ability to hydroxylate methane or epoxidize C2 -C4 alkenes [3]: did not possess the ability
Conversion rate, propylene to propylene oxide [4]: 2.0 μmole/hr/mg protein
Conversion rate, propylene to propylene oxide [5]: 1.4 μmole/hr/mg protein
Conversion rate, propylene to propylene oxide [6]: 1.8 μmole/hr/mg protein
Ability to hydroxylate methane or epoxidize C2 -C4 alkenes [7]: did not possess the ability
Epoxidation Rate, Propylene oxide ([8]; propylene alone (control), 1 Hr, 50% O2): 2.0 μmoles/0.5 ml
Epoxidation Rate, Propylene oxide ([8]; propylene alone (control), 2 Hr): 3.8 μmoles/0.5 ml

C [Methane]
Methane-Oxidizing Activity, P(40) ([1]; P(40) fraction, 30° C.): 4.8 μmoles of product formed per h
Uninhibited rate of oxidation ([1]; P(40) fraction): 4.5 μmoles per hr. per mg. of prot
NADH Oxidized ([1]; P(40) fraction): 4.8 µmol
O2 Consumed ([1]; P(40) fraction): 4.6 µmol
Product Formed ([1]; P(40) fraction): 4.2 µmol
Propylene Oxide Produced ([1]; P(40) fraction, substrate Propylene + Methane (1:1, v/v)): 1.8 μmoles/hr/mg. protein
Propylene Oxide Produced ([1]; P(40) fraction, substrate methane alone): 0 μmoles/hr/mg. protein
Rate of Product Formation (substrate to 1,2-epoxide or alcohol) ([1]; 30° C.): 4.8 μmoles/hr/mg of protein
100% activity, product formed (storage study) [1]: 4.8 μmoles per hr. per mg. of prot
100% activity, product formed (pH study) [1]: 4.8 μmoles per hour, per mg protei
100% activity, product formed (temperature study) [1]: 5.0 μmoles per hour per mg of prot
Methane-Oxidizing Activity, P(80) ([1]; P(80) fraction, 30° C.): 4.2 μmoles of product formed per h
Methane-Oxidizing Activity, S(80) ([1]; S(80) fraction, 30° C.): 0 μmoles of product formed per h
Conversion rate, methane hydroxylation [2, 9]: 0.7 μmole/hr/mg protein
Ability to hydroxylate methane or epoxidize C2 -C4 alkenes [2]: did not possess the ability
Conversion rate, methane hydroxylation [3, 9]: 1.3 μmole/hr/mg protein
Ability to hydroxylate methane or epoxidize C2 -C4 alkenes [3]: did not possess the ability
Conversion rate, methane hydroxylation (methane to methanol) [4]: 1.1 μmole/hr/mg protein and 1.8 μmole/hr/mg protein
Conversion rate, methane hydroxylation [5]: 1.8 μmole/hr/mg protein
Conversion rate, methane hydroxylation [6]: 1.0 μmole/hr/mg protein
Conversion rate, methane hydroxylation [7, 9]: 1.2 μmole/hr/mg protein
Ability to hydroxylate methane or epoxidize C2 -C4 alkenes [7]: did not possess the ability
Epoxidation Rate, Propylene oxide ([8]; Propylene + 5% methane, 1 Hr): 2.0 μmoles/0.5 ml
Epoxidation Rate, Propylene oxide ([8]; Propylene + 5% methane, 2 Hr): 4.0 μmoles/0.5 ml
Epoxidation Rate, Propylene oxide ([8]; Propylene + 5% methane, 3 Hr): 4.1 μmoles/0.5 ml
Epoxidation Rate, Propylene oxide ([8]; Propylene + 7% methane, 1 Hr): 2.3 μmoles/0.5 ml
Epoxidation Rate, Propylene oxide ([8]; Propylene + 7% methane, 2 Hr): 4.7 μmoles/0.5 ml
Epoxidation Rate, Propylene oxide ([8]; Propylene + 7% methane, 3 Hr): 4.8 μmoles/0.5 ml
Epoxidation Rate, Propylene oxide ([8]; Propylene + 15% methane, 1 Hr): 3.5 μmoles/0.5 ml
Epoxidation Rate, Propylene oxide ([8]; Propylene + 15% methane, 2 Hr): 6.4 μmoles/0.5 ml
Epoxidation Rate, Propylene oxide ([8]; Propylene + 15% methane, 3 Hr): 6.5 μmoles/0.5 ml
Epoxidation Rate, Propylene oxide ([8]; Propylene + 20% methane, 1 Hr): 3.8 μmoles/0.5 ml
Epoxidation Rate, Propylene oxide ([8]; Propylene + 20% methane, 2 Hr): 7.1 μmoles/0.5 ml
Epoxidation Rate, Propylene oxide ([8]; Propylene + 20% methane, 3 Hr): 7.2 μmoles/0.5 ml
Inhibition of epoxidation of propylene to propylene oxide ([8]; cell suspension, in the presence of methane): 50%
